Laboratory results as given in the supplement of paper PMC10331698.
± gives the standard deviation of the averaged measurements.

Columns and labels:
Test in all cases: level (log10 ratio to DMSO vehicle control); higher = higher biomarker level / cell amount than vehicle control
[1] = compound: C=C(C)C(=O)OCC(F)(F)C(F)(F)C(F)(F)F [2,2,3,3,4,4,4-Heptafluorobutyl methacrylate]; conditions: in DMSO
Procedure: (§1)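 BioMAP Diversity Plus panel of 12 human primary cell co-culture systems (3C, 4H, LPS, SAg, BT, BF4T, BE3C, CASM3C, HDF3CGF, KF3CT, MyoF, Mphg). Compounds were added 1 h before stimulation and left for 24 h (MyoF 48 h; BT 72 h for soluble read-outs or 6 d for IgG). Biomarkers were read by ELISA, cytotoxicity by SRB, PBMC viability and proliferation by Alamar Blue. Each well value was divided by the mean of 8 DMSO control wells on the same plate and log10 transformed; duplicate blinded samples were tested at 4 concentrations.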

[2] = compound: C=CC(=O)OCC(F)(F)C(F)(F)C(F)(F)C(F)(F)C(F)(F)C(F)(F)C(F)(F)C(F)F [1H,1H,9H-Perfluorononyl acrylate]; conditions: in DMSO
Procedure: as §1

[3] = compound: FC(F)(F)C(F)(F)C(F)(F)C(F)(F)CCI [1H,1H,2H,2H-Perfluorohexyl iodide]; conditions: in DMSO
Procedure: as §1

[4] = compound: FC(F)(F)COC(OCC(F)(F)F)OCC(F)(F)F [tris(Trifluoroethoxy)methane]; conditions: in DMSO
Procedure: as §1

[5] = compound: O=P(O)(O)CCC(F)(F)C(F)(F)C(F)(F)C(F)(F)C(F)(F)C(F)(F)F [2-(Perfluorohexyl)ethylphosphonic acid]; conditions: in DMSO
Procedure: as §1

[6] = compound: OCC(F)(F)C(F)(F)C(F)(F)C(F)(F)C(F)(F)C(F)(F)F [6:1 Fluorotelomer alcohol]; conditions: in DMSO
Procedure: as §1

[7] = compound: OCCCC(F)(F)C(F)(F)C(F)(F)C(F)(F)C(F)(F)C(F)(F)C(F)(F)C(F)(F)F [3-(Perfluorooctyl)propanol]; conditions: 6700 nM; in DMSO
Procedure: as §1

Test System	level (log10) ([1]; 6700 nM)	level (log10) ([1]; 20000 nM)	level (log10) ([1]; 60000 nM)	level (log10) ([2]; 6700 nM)	level (log10) ([2]; 20000 nM)	level (log10) ([2]; 60000 nM)	level (log10) ([3]; 6700 nM)	level (log10) ([3]; 20000 nM)	level (log10) ([3]; 60000 nM)	level (log10) ([4]; 6700 nM)	level (log10) ([4]; 20000 nM)	level (log10) ([4]; 60000 nM)	level (log10) ([5]; 6700 nM)	level (log10) ([5]; 20000 nM)	level (log10) ([5]; 60000 nM)	level (log10) ([6]; 6700 nM)	level (log10) ([6]; 20000 nM)	level (log10) ([6]; 60000 nM)	level (log10) [7]
KF3CT:MMP-9	-0.029	-0.0115 ± 0.00071	0.0085 ± 0.0092	-0.013 ± 0.014	-0.0085 ± 0.0035	-0.0285 ± 0.04	0.0055 ± 0.0078	0.0035 ± 0.00071	0.0115 ± 0.005	-0.0015 ± 0.016	-0.0105 ± 0.00071	0.004 ± 0.013	-0.0305 ± 0.012	-0.024 ± 0.0071	-0.0565 ± 0.026	-0.018 ± 0.0028	-0.0315 ± 0.0021	0.002 ± 0.0028	-0.053 ± 0.0085
HDF3CGF:Collagen I	-0.0145 ± 0.0021	-0.0495 ± 0.064	0.016 ± 0.033	-0.0115 ± 0.016	-0.0075 ± 0.056	-0.0605 ± 0.11	0.004 ± 0.047	-0.0205 ± 0.063	0.015 ± 0.11	0.0165 ± 0.061	0.0025 ± 0.042	0.0345 ± 0.03	-0.016 ± 0.0042	-0.0365 ± 0.005	-0.0865 ± 0.09	-0.01 ± 0.0085	-0.0005 ± 0.005	0.0145 ± 0.039	0.161 ± 0.077
KF3CT:IL-1alpha	-0.005 ± 0.0071	-0.007 ± 0.014	-0.0005 ± 0.016	0.021 ± 0.0042	0.023 ± 0.031	0.018 ± 0.0085	0.0115 ± 0.037	0.0105 ± 0.015	0.051 ± 0.0071	-0.0045 ± 0.0078	-0.0055 ± 0.0092	0.0055 ± 0.019	0.0005 ± 0.0078	0.0225 ± 0.00071	0.0455 ± 0.012	-0.005 ± 0.02	0.0195 ± 0.021	0.007 ± 0.0071	-0.0985 ± 0.012
HDF3CGF:Collagen III	-0.0545 ± 0.1	-0.075 ± 0.031	-0.034 ± 0.048	-0.096 ± 0.03	-0.102 ± 0.022	-0.124 ± 0.016	-0.0145 ± 0.021	-0.0185 ± 0.052	-0.035 ± 0.047	-0.013 ± 0.0071	-0.0205 ± 0.0092	0.0075 ± 0.016	0.0135 ± 0.0078	0.0075 ± 0.018	-0.0305 ± 0.012	-0.0865 ± 0.14	0.0115 ± 0.074	-0.367 ± 0.052	-0.12 ± 0.0092
lMphg:SRB	-0.0075 ± 0.0092	-0.004 ± 0.0057	0.0005 ± 0.021	-0.003 ± 0.0014	-0.005 ± 0.0042	-0.005 ± 0.0057	-0.008 ± 0.011	-0.003 ± 0.0028	0 ± 0.021	-0.0035 ± 0.011	-0.0025 ± 0.0021	0.0045 ± 0.023	-0.006 ± 0.0071	-0.0025 ± 0.013	0.009 ± 0.017	-0.001 ± 0.0099	-0.001 ± 0.0028	-0.0005 ± 0.0092	0.0045 ± 0.0078
3C:CD54/ICAM-1	0.002 ± 0.0028	0.007 ± 0.0042	0.0135 ± 0.005	-0.009 ± 0.0057	-0.0085 ± 0.012	-0.0105 ± 0.015	-0.01 ± 0.041	-0.027 ± 0.025	-0.009 ± 0.054	0.004 ± 0.0042	-0.0105 ± 0.0064	-0.0145 ± 0.00071	-0.0165 ± 0.012	-0.018 ± 0.0014	-0.0095 ± 0.005	0.004	-0.001 ± 0.0071	-0.0815 ± 0.12	0.0095 ± 0.0064
lMphg:CCL2/MCP-1	-0.0335 ± 0.028	-0.012 ± 0.0099	-0.0115 ± 0.028	-0.009 ± 0.0099	-0.025 ± 0.021	-0.041 ± 0.055	-0.028 ± 0.042	-0.0285 ± 0.0021	0.008 ± 0.013	-0.01 ± 0.023	0.0005 ± 0.011	0.018 ± 0.035	-0.004 ± 0.0071	0.01 ± 0.0042	-0.0105 ± 0.005	-0.016 ± 0.0028	-0.046 ± 0.023	-0.02 ± 0.0071	0.0035 ± 0.016
HDF3CGF:TIMP-2	-0.008 ± 0.0014	-0.0105 ± 0.022	-0.0245 ± 0.019	0.025 ± 0.092	-0.0355 ± 0.032	-0.1545 ± 0.00071	-0.0105 ± 0.013	-0.023 ± 0.021	-0.115 ± 0.0064	-0.0165 ± 0.029	-0.002 ± 0.037	-0.0105 ± 0.005	0.0095 ± 0.042	0.0365 ± 0.036	0.0305 ± 0.036	0.004 ± 0.0099	-0.0195 ± 0.0064	-0.0905 ± 0.17	0.029 ± 0.013
MyoF:CXCL8/IL-8	-0.0125 ± 0.033	-0.017 ± 0.024	-0.014 ± 0.041	-0.024 ± 0.031	-0.006 ± 0.03	0.0205 ± 0.013	0.065 ± 0.1	0.078 ± 0.1	0.142 ± 0.12	-0.0155 ± 0.035	-0.0125 ± 0.0078	0.0195 ± 0.015	-0.013 ± 0.013	0.018 ± 0.018	0.0795 ± 0.018	-0.0055 ± 0.025	-0.0095 ± 0.037	-0.005 ± 0.025	-0.0505 ± 0.033
MyoF:TIMP-1	0.017 ± 0.028	0.0135 ± 0.025	0.0075 ± 0.0064	-0.0205 ± 0.0078	-0.015 ± 0.0085	-0.008 ± 0.03	0.019 ± 0.041	0.024 ± 0.083	0.021 ± 0.12	-0.0325 ± 0.032	-0.05 ± 0.055	-0.076 ± 0.0028	-0.035 ± 0.017	0.013 ± 0.0042	0.028 ± 0.023	0.0125 ± 0.025	0.0145 ± 0.019	0.03 ± 0.013	-0.0115 ± 0.046
HDF3CGF:EGFR	-0.018 ± 0.09	-0.0115 ± 0.057	-0.064 ± 0.041	-0.019 ± 0.023	0.017 ± 0.0014	0.045 ± 0.013	0.0025 ± 0.026	-0.006 ± 0.038	0.015 ± 0.047	-0.0265 ± 0.015	-0.016 ± 0.054	-0.016 ± 0.0085	-0.012 ± 0.034	-0.0255 ± 0.005	0.0195 ± 0.025	0.009 ± 0.041	0.0125 ± 0.019	-0.0555 ± 0.035	-0.31 ± 0.071
HDF3CGF:SRB	0.007 ± 0.02	-0.002 ± 0.0099	0.017 ± 0.0085	-0.017 ± 0.059	-0.011 ± 0.072	-0.0635 ± 0.079	0.0085 ± 0.037	-0.011 ± 0.0014	0.0105 ± 0.028	0.003 ± 0.073	0.0335 ± 0.0035	0.02 ± 0.038	-0.025 ± 0.045	0.0355 ± 0.029	0.001 ± 0.05	0.0015 ± 0.067	-0.003 ± 0.025	-0.139 ± 0.13	-0.397 ± 0.28
HDF3CGF:M-CSF	0.0085 ± 0.00071	0.0255 ± 0.0078	0.0135 ± 0.029	-0.039	-0.079 ± 0.041	-0.254 ± 0.076	-0.015 ± 0.0085	-0.0295 ± 0.0064	-0.074 ± 0.014	-0.0005 ± 0.00071	-0.0125 ± 0.005	0.022 ± 0.037	0.0025 ± 0.0092	0.0265 ± 0.0092	0.013 ± 0.014	0 ± 0.02	0.0355 ± 0.0092	-0.225 ± 0.03	-0.258 ± 0.0092
3C:CD62E/E-Selectin	-0.005 ± 0.011	-0.014 ± 0.0042	-0.0015 ± 0.013	-0.005	-0.019 ± 0.0099	-0.014 ± 0.018	-0.003 ± 0.0042	-0.0225 ± 0.018	0.005 ± 0.014	-0.022 ± 0.0014	-0.0185 ± 0.0078	-0.0245 ± 0.0035	-0.0115 ± 0.0078	0 ± 0.0085	-0.001 ± 0.024	-0.001 ± 0.0099	-0.011 ± 0.0085	0.0125 ± 0.0078	-0.024 ± 0.0099
CASM3C:LDLR	-0.0045 ± 0.036	0.006 ± 0.0042	0.0055 ± 0.0078	-0.0545 ± 0.026	0.0515 ± 0.042	0.0355 ± 0.063	0.0305 ± 0.021	0.02 ± 0.035	0.0415 ± 0.053	-0.0325 ± 0.022	-0.0055 ± 0.015	0.008 ± 0.013	-0.011 ± 0.017	-0.0115 ± 0.0092	-0.0135 ± 0.0092	0.0045 ± 0.016	0.014 ± 0.017	-0.0585 ± 0.022	0.0385 ± 0.023
